Experimental data taken from patent US10577378B2, “EIF4A-inhibiting compounds and methods related thereto” (eFFECTOR Therapeutics, Inc., priority 2015, dated 2020).

Tested on: MDA-MB-231 human breast cancer cells
Assay: Cell proliferation assay (CellTiter-Glo, 72 hours treatment)
Type: cell-based
Conditions: Homo sapiens; MDA-MB-231 cells, 72 hours at 37° C., CellTiter-Glo; read-out: MDA-MB-231 cell proliferation assay (IC50)
Outline: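 IC50 categories: under 100 nM +++, 100–1000 nM ++, above 1000 nM +, derived by sigmoidal curve fitting of CellTiter-Glo luminescence. Cells plated at 2,500 per well, dosed the following day and exposed 72 h at 37 °C versus DMSO control.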

Q: With `COc1nc(Cl)cc2c1[C@]1(O)[C@H](O)[C@H](CN3CCC34CC4(F)F)[C@@H](c3ccccc3)[C@]1(c1ccc(Br)cc1)O2` (mixture of isomers) [220F, Rac-(5aR,6S,7S,8R,8aS)-5a-(4-bromophenyl)-3-chloro-7-((1,1-difluoro-4-azaspiro[2.3]hexan-4-yl)methyl)-1-methoxy-6-phenyl-5a,6,7,8-tetrahydro-8aH-cyclopenta[4,5]furo[3,2-c]pyridine-8,8a-diol] as the molecule, how does the IC50 read?
A: < 0.1 µM

Q: How did the IC50 turn out when `COC1=C(C(=O)N(C)C)[C@@H](c2ccccc2)[C@]2(c3ccc(Br)cc3)Oc3cc(Cl)cnc3[C@]12O` (racemic) [35F, rac-(5aR,6R,8aS)-5a-(4-bromophenyl)-3-chloro-8a-hydroxy-8-methoxy-N,N-dimethyl-6-phenyl-5a,8a-dihydro-6H-cyclopenta[4,5]furo[3,2-b]pyridine-7-carboxamide] was run?
A: > 1 µM

Q: For `COc1cncc2c1[C@]1(O)[C@@H]3OC(=O)N[C@@H]3[C@@H](c3ccccc3)[C@]1(c1ccc(C#N)cc1)O2` (single isomer, unassigned) [81F], which IC50 is on record?
A: < 0.1 µM

Q: Which IC50 does the source give for `COc1nc(Cl)cc2c1[C@]1(O)[C@H](O)[C@H](CN(C)CC(F)F)[C@@H](c3ccccc3)[C@]1(c1ccc(C#N)cc1)O2` (racemic) [208Fb, Rac-4-((5aR,6S,7S,8R,8aS)-3-chloro-7-(((2,2-difluoroethyl)(methyl)amino)methyl)-8,8a-dihydroxy-1-methoxy-6-phenyl-6,7,8,8a-tetrahydro-5aH-cyclopenta[4,5]furo[3,2-c]pyridin-5a-yl)benzonitrile] here?
A: 0.1 to 1 µM

Q: Which IC50 does the source give for `CCN(CC)C[C@H]1[C@@H](O)[C@@]2(O)c3c(cc(C#N)nc3OC)O[C@@]2(c2ccc(Br)cc2)[C@@H]1c1ccccc1` (racemic) [159Fa, Rac-(5aR,6S,7S,8R,8aS)-5a-(4-bromophenyl)-7-((diethylamino)methyl)-8,8a-dihydroxy-1-methoxy-6-phenyl-5a,7,8,8a-tetrahydro-6H-cyclopenta[4,5]furo[3,2-c]pyridine-3-carbonitrile] here?
A: < 0.1 µM

Q: With `CN(C)C(=O)[C@@H]1[C@@H](c2ccccc2)[C@]2(c3ccc(C#N)cc3)Oc3cc(Cl)cnc3[C@]2(O)[C@@]1(C)O` (racemic) [33Fb, Rac-(5aR,6S,7R,8S,8aS)-3-chloro-5a-(4-cyanophenyl)-8,8a-dihydroxy-N,N,8-trimethyl-6-phenyl-5a,7,8,8a-tetrahydro-6H-cyclopenta[4,5]furo[3,2-b]pyridine-7-carboxamide] as the molecule, how does the IC50 read?
A: > 1 µM

Q: `COc1cncc2c1[C@]1(O)[C@H](O)[C@H](CN(C)C)[C@@H](c3ccccc3)[C@]1(c1ccc(C(F)(F)F)cc1)O2` (single isomer, unassigned) [107F] was tested. Which IC50 did it give?
A: 0.1 to 1 µM

Q: How did the IC50 turn out when `CC(C)n1cc2c(n1)[C@]1(O)[C@H](O)[C@H](C(=O)N(C)C)[C@@H](c3ccccc3)[C@]1(c1ccc(C#N)cc1)O2` (racemic) [80F, rac-(4aR,5S,6R,7R,7aS)-4a-(4-cyanophenyl)-7,7a-dihydroxy-2-isopropyl-N,N-dimethyl-5-phenyl-2,4a,5,6,7,7a-hexahydrocyclopenta[4,5]furo[3,2-c]pyrazole-6-carboxamide] was run?
A: > 1 µM

Q: `N#Cc1ccc([C@@]23Oc4cc(Cl)cnc4[C@]2(O)[C@H](CO)C[C@H]3c2ccccc2)cc1` (racemic) [168F, Rac-4-((5aR,6S,8S,8aR)-3-chloro-8a-hydroxy-8-(hydroxymethyl)-6-phenyl-6,7,8,8a-tetrahydro-5aH-cyclopenta[4,5]furo[3,2-b]pyridin-5a-yl)benzonitrile] was tested. Which IC50 did it give?
A: > 1 µM

Q: `O=C1O[C@@H]2[C@H]1[C@@H](c1ccccc1)[C@]1(c3ccc(Br)cc3)Oc3cc(Cl)cnc3[C@]21O` (racemic) [169F, Rac-(2aR,3S,3aR,8bS,8cR)-3a-(4-bromophenyl)-6-chloro-8b-hydroxy-3-phenyl-3,3a,8b,8c-tetrahydrooxeto[3″,2″:4′,5′]cyclopenta[1′,2′:4,5]furo[3,2-b]pyridin-2(2aH)-one] was tested. Which IC50 did it give?
A: > 1 µM

Q: How did the IC50 turn out when `COc1nc(Cl)cc2c1[C@]1(O)[C@H](O)[C@H](CN(C)C)[C@@H](c3ccccc3)[C@]1(c1ccc(C(F)(F)F)cc1)O2` (racemic) [144F, Rac-(5aR,6S,7S,8R,8aS)-3-chloro-7-((dimethylamino)methyl)-1-methoxy-6-phenyl-5a-(4-(trifluoromethyl)phenyl)-5a,6,7,8-tetrahydro-8aH-cyclopenta[4,5]furo[3,2-c]pyridine-8,8a-diol] was run?
A: < 0.1 µM

Q: With `O=C1C[C@@H](c2ccccc2)[C@]2(c3ccc(Br)cc3)Oc3cc(Cl)cnc3[C@]12O` (racemic) [129F, Rac-(5aR,6S,8aR)-5a-(4-bromophenyl)-3-chloro-8a-hydroxy-6-phenyl-5a,6,7,8a-tetrahydro-8H-cyclopenta[4,5]furo[3,2-b]pyridin-8-one] as the molecule, how does the IC50 read?
A: > 1 µM

Q: For `O[C@]12c3ncc(Cl)cc3O[C@@]1(c1ccc(Br)cc1)[C@H](c1ccccc1)C[C@@H]2CN1CCOCC1` (racemic) [177F, rac-(5aR,6S,8R,8aR)-5a-(4-bromophenyl)-3-chloro-8-(morpholinomethyl)-6-phenyl-5a,6,7,8-tetrahydro-8aH-cyclopenta[4,5]furo[3,2-b]pyridin-8a-ol], which IC50 is on record?
A: 0.1 to 1 µM

Q: For `CS(=O)(=O)[C@H]1[C@@H](O)[C@@]2(O)c3ncc(Cl)cc3O[C@@]2(c2ccc(C#N)cc2)[C@@H]1c1ccccc1` (racemic) [85F, Rac-4-((5aR,6S,7R,8S,8aS)-3-chloro-8,8a-dihydroxy-7-(methylsulfonyl)-6-phenyl-6,7,8,8a-tetrahydro-5aH-cyclopenta[4,5]furo[3,2-b]pyridin-5a-yl)benzonitrile], which IC50 is on record?
A: > 1 µM

Q: `COc1nc(C#N)cc2c1[C@]1(O)[C@H](O)[C@H](CN3CCC(F)(F)CC3)[C@@H](c3ccccc3)[C@]1(c1ccc(C#N)cc1)O2` (racemic) [157Fc, Rac-(5aR,6S,7S,8R,8aS)-5a-(4-cyanophenyl)-7-((4,4-difluoropiperidin-1-yl)methyl)-8,8a-dihydroxy-1-methoxy-6-phenyl-5a,7,8,8a-tetrahydro-6H-cyclopenta[4,5]furo[3,2-c]pyridine-3-carbonitrile] was tested. Which IC50 did it give?
A: 0.1 to 1 µM

Q: With `COc1cncc2c1[C@]1(O)[C@@H](CO)C[C@@H](c3ccccc3)[C@]1(c1ccc(C#N)cc1)O2` (single isomer, unassigned) [120F] as the molecule, how does the IC50 read?
A: < 0.1 µM

Q: For `COc1cncc2c1[C@]1(O)[C@H](O)[C@H](CN3CCN(C(C)=O)CC3)[C@@H](c3ccccc3)[C@]1(c1ccc(C#N)cc1)O2` (racemic) [194F, Rac-4-((4bS,5R,6S,7S,7aR)-6-((4-acetylpiperazin-1-yl)methyl)-4b,5-dihydroxy-4-methoxy-7-phenyl-4b,5,6,7-tetrahydro-7aH-cyclopenta[4,5]furo[2,3-c]pyridin-7a-yl)benzonitrile], which IC50 is on record?
A: > 1 µM

Q: `COc1nc(Cl)cc2c1[C@]1(O)[C@H](O)[C@H](CNCC(F)F)[C@@H](c3ccccc3)[C@]1(c1ccc(C#N)cc1)O2` (racemic) [196F, Rac-4-((5aR,6S,7S,8R,8aS)-3-chloro-7-(((2,2-difluoroethyl)amino)methyl)-8,8a-dihydroxy-1-methoxy-6-phenyl-6,7,8,8a-tetrahydro-5aH-cyclopenta[4,5]furo[3,2-c]pyridin-5a-yl)benzonitrile] was tested. Which IC50 did it give?
A: < 0.1 µM

Q: `COc1cncc2c1[C@]1(O)[C@H](O)[C@H](CN(C)CC(C)(C)O)[C@@H](c3ccccc3)[C@]1(c1ccc(C#N)cc1)O2` (single isomer, unassigned) [252F] was tested. Which IC50 did it give?
A: < 0.1 µM

Q: With `CN(C)C(=O)[C@H]1[C@@H](O)[C@@]2(O)c3ncc(Cl)cc3O[C@@]2(c2ccc(F)cc2)[C@@H]1c1ccccc1` (single isomer, unassigned) [10F] as the molecule, how does the IC50 read?
A: > 1 µM

Q: How did the IC50 turn out when `COc1cncc2c1[C@]1(O)[C@H](O)[C@H](CN)[C@@H](c3ccccc3)[C@]1(c1ccc(C#N)cc1)O2` (racemic) [65F, Rac-4-((4bS,5R,6S,7S,7aR)-6-(aminomethyl)-4b,5-dihydroxy-4-methoxy-7-phenyl-5,6,7,7a-tetrahydro-4bH-cyclopenta[4,5]furo[2,3-c]pyridin-7a-yl)benzonitrile] was run?
A: 0.1 to 1 µM

Q: With `COc1cncc2c1[C@]1(O)[C@H](O)[C@H](CN3CC4(COC4)C3)[C@@H](c3ccccc3)[C@]1(c1ccc(C#N)cc1)O2` (racemic) [236F, Rac-4-((4bS,5R,6S,7S,7aR)-6-((2-oxa-6-azaspiro[3.3]heptan-6-yl)methyl)-4b,5-dihydroxy-4-methoxy-7-phenyl-4b,5,6,7-tetrahydro-7aH-cyclopenta[4,5]furo[2,3-c]pyridin-7a-yl)benzonitrile] as the molecule, how does the IC50 read?
A: 0.1 to 1 µM

Q: For `CN(C)C(=O)[C@H]1[C@@H](O)[C@@]2(O)c3ncc(Cl)cc3O[C@@]2(c2ccc(S(C)(=O)=O)cc2)[C@@H]1c1ccccc1` (single isomer, unassigned) [12F], which IC50 is on record?
A: > 1 µM

Q: For `COc1cncc2c1[C@]1(O)[C@H](O)[C@H](C(=O)NC3CC3)[C@@H](c3ccccc3)[C@]1(c1ccc(Br)cc1)O2` (racemic) [89F, Rac-(4bS,5R,6R,7S,7aR)-7a-(4-bromophenyl)-N-cyclopropyl-4b,5-dihydroxy-4-methoxy-7-phenyl-4b,6,7,7a-tetrahydro-5H-cyclopenta[4,5]furo[2,3-c]pyridine-6-carboxamide], which IC50 is on record?
A: < 0.1 µM

Q: How did the IC50 turn out when `COc1cncc2c1[C@]1(O)[C@H](O)[C@H](CN(C)CCF)[C@@H](c3ccccc3)[C@]1(c1ccc(C#N)cc1)O2` (single isomer, unassigned) [248F] was run?
A: < 0.1 µM

Q: Which IC50 does the source give for `COc1cncc2c1[C@]1(O)[C@H](O)[C@H](C(=O)NCC(C)(C)O)[C@@H](c3ccccc3)[C@]1(c1ccc(Br)cc1)O2` (racemic) [253F, Rac-(4bS,5R,6R,7S,7aR)-7a-(4-bromophenyl)-4b,5-dihydroxy-N-(2-hydroxy-2-methylpropyl)-4-methoxy-7-phenyl-4b,6,7,7a-tetrahydro-5H-cyclopenta[4,5]furo[2,3-c]pyridine-6-carboxamide] here?
A: < 0.1 µM

Q: `COc1cncc2c1[C@]1(O)[C@H](O)[C@H](C(=O)N3CCC(F)(F)C3)[C@@H](c3ccccc3)[C@]1(c1ccc(Br)cc1)O2` (racemic) [279F, Rac-((4bS,5R,6R,7S,7aR)-7a-(4-bromophenyl)-4b,5-dihydroxy-4-methoxy-7-phenyl-4b,6,7,7a-tetrahydro-5H-cyclopenta[4,5]furo[2,3-c]pyridin-6-yl)(3,3-difluoropyrrolidin-1-yl)methanone] was tested. Which IC50 did it give?
A: < 0.1 µM
